Holding throughout (assay type): cell-based
In one assay the test system is endothelial cells. In words: Endothelial cell tube formation. The following applies: 50 μM or 100 μM. As to the method:
When endothelial cells are cultured on extracellular matrix protein gels in the presence of angiogenic signals, they arrange themselves into structures loosely resembling capillary blood vessels (“tube formation”). Cpd.

Assay [1] has as its system MMP-9. In words: Release of MMP-9 from STTG astrocytoma cells, gelatin zymogram. The following applies: data not shown.
Assay [2] concerns MMP-9. The experiment in a line: Release of MMP-9 from primary human microglial cells, gelatin zymogram. As to conditions: supernatants concentrated 10×.
Assay [3] deals with MMP-9. The experiment in a line: Secretion of MMP-9 by BT001 glioma cells, gelatin zymogram. As to conditions: 48 hours. As to the method: Assays were performed to determine the effect of Cpd. 5 (synthesis described in Example 1) on the secretion of MMP-9 by the BT001 glioma cell line. The BT001 cell line was established as follows from cells obtained after surgery. The excised tissue was treated briefly with a protease cocktail, and the resulting cell suspension was cultured in IMDM supplemented with 10% FBS. Expanded cells were then frozen for future use.
A fresh 50 mM stock solution of Cpd. 5 was prepared in ethanol and warmed to 37° C. Aliquots of the stock solution were removed and diluted in IMDM supplemented with 0.1% FBS, insulin-transferrin-sodium selenite (ITSS) solution, and penicillin/streptomycin solution to prepare experimental culture media (final concentrations of Cpd. 5 ranged from 10-100 μM). Ethanol in the culture medium was used as diluent control.
The BT001 cells were cultured in 25 cm^2 flasks in IMDM containing 10% FBS at 37° C. and 5% CO2. When cells reach 70-80% confluence, they were washed two times with IMDM that had been warmed to 37° C. in a water bath. The experimental culture media containing Cpd. 5 were then added to the flasks (4.5 ml per flask), and the flasks were incubated at 37° C. and 5% CO2 for 48 hours. The conditioned media were then removed from the cells, and cellular debris was removed by centrifugation at 2000 rpm for 10 minutes. The supernatants were then transferred to sterile tubes and stored at −20° C.
Gelatin zymograms were used to evaluate MMP release and activity in the samples. Precast 10% polyacrylamide gels impregnated with gelatin were obtained from Invitrogen, Carlsbad, Calif. Ten μL, of each of the thawed conditioned media were mixed with an equal volume of SDS-PAGE loading dye without reducing agent (obtained from Invitrogen, Carlsbad, Calif.), applied to the gels and separated at 150 volts for 1 hour. The gels were then processed following the manufacturer's recommended protocol (includes renaturing the gels for one hour and incubating overnight at 37° C. with gentle shaking for protease digestion of gelatin). Visualization of MMP activity was done by staining the gel with Invitrogen Simple Safe blue commassie solution and photographing the gel on a Kodak Image station. The intensity of the bands in the photos was determined using bundled Kodak software. Percent decrease was determined with the following formula: (Intensity of diluent control)−(Intensity of treatment)/(Intensity of diluent control)×100. The data presented in Table 4 are the means of three or four replicate experiments.

The test system of assay [4] is human umbilical vein endothelial cells (HUVECs). The experiment in a line: Proliferation of HUVECs, Promega cell titer assay. The following applies: 72 hours. On the procedure: Assays were performed to determine the effect of Cpd. 5 on proliferation of human umbilical vein endothelial cells (HUVECs). Passage 4-5 HUVECs, human source lot number 13047 (obtained from Lonza) were put into the wells of a 96-well tissue culture plate at 1200 cells/well in 100 μl endothelial growth medium-2 (EGM-2) complete medium (obtained from Lonza). A 50 mM stock solution of Cpd. 5 was prepared in DMSO and frozen at −80° C. Aliquots of the stock solution were removed and dilutions containing from 50 μM to 300 μM Cpd. 5 were made in EGM-2 complete medium (Lonza). Controls containing equivalent amounts of DMSO to the 200 μM solution were mixed for comparative purposes. 100 μl of the resulting solutions were then added to the cells in the 96-well culture plates in triplicate and placed in a 37° C. incubator with 5% CO2 for 72 hours.
Following incubation, cell proliferation was assayed by adding 20 μl Promega cell titer aqueous one reagent to each well. Promega cell titer reagent is a solution containing a tetrazolium dye that is reduced by living cells to a formazan dye, and this reduction is proportional to the number of living cells present in the well. The plates were incubated at 37° C. for an additional 4 hours to allow the colorimetric assay to develop, and the OD of each well was determined in a microplate reader using a 530 nm filter. The OD of wells containing cell titer reagent in culture medium with no cells was subtracted from the OD of all experimental readings.
The % decrease of the total cell titer signal was determined using the following formula. ((Diluent OD−Experimental OD)/Diluent OD))×100. Data are presented in Table 7 as mean % decrease of cell titer signal of three separate experiments, plus or minus standard deviation. In the mean % decrease column, a positive number means a decrease in cell titer signal, while a negative number means an increase in cell titer signal. The p values were calculated versus diluent controls.

With `COC(=O)C(c1ccc(-c2ccccc2)cc1)C1NC(=O)CNC1=O` (stereo not shown) [Cpd. 5, biphenyl-4-yl-(3,6-dioxo-piperazin-2-yl)-acetic acid methyl ester], in the assay on endothelial cells, the “effect on tube formation” value is listed as “no observable effect”. Besides, the “effect on the release of MMP-9 from the STTG cells” value in the assay with MMP-9 [1] is on record as “no effect”. Further, in the assay on MMP-9 [2] (100 μM, read-out: inhibition of the release of active MMP-9), the inhibition – broadly, the relative decrease from the control value, in per cent – at 100 µM is 35.9%. Also, the “inhibition of the release of pro-MMP-9” value in the assay on MMP-9 [2] (data not shown) is listed as “did not inhibit”. Further, the “MEAN % DECREASE ACTIVE MMP-9” value with MMP-9 [3] (BT001, 10 μM) was found to be 49.55 ± 21.49%; in the assay with MMP-9 [3] (BT001, 50 μM), 40.51 ± 9.73%; with MMP-9 [3] (BT001, 100 μM) it was 71.08 ± 17.47%. Moreover, the “MEAN % DECREASE PRO-MMP-9” value with MMP-9 [3] (BT001, 10 μM) is 6.89 ± 20.51%; in the assay on MMP-9 [3] (BT001, 50 μM), 36.13 ± 20.53%; with MMP-9 [3] (BT001, 100 μM), 45.55 ± 20.50%. For the same compound, the “MEAN % DECREASE of cell titer signal” value in assay [4] (25 μM) is listed as −48.60%; in assay [4] (50 μM), −14.44%; in assay [4] (100 μM), 62.04%.

The values above are taken from patent publication US8871772B2, “Therapeutic methods and compounds” (Ampio Pharmaceuticals, Inc., priority 2008, dated 2014).
